From patent US20240376097A1, “BCL-2 Inhibitor” (BeiGene Ltd., priority 2020, published 2024)
Read-outs that look alike come from different tables or passages of the source.

What was measured:
[1] = target: Recombinant human Bcl-2 protein (Homo sapiens (Human), UniProt P10415); assay: Bcl-2 TR-FRET Assay; format: binding
Procedure, shortened: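 Compounds were pre-incubated with 0.05 nM recombinant Bcl-2 for 0.5 h at room temperature in potassium phosphate buffer, pH 7.5. FITC-Bak peptide (0.5 nM) and Tb-cryptate antibody were then added for 1 h. Percent inhibition from TR-FRET signals gave IC50 values.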

[2] = target: recombinant human Bcl-2-G101V protein (Homo sapiens (Human), UniProt P10415, G101V); assay: Bcl-2-G101V TR-FRET Assay; format: binding; settings: Bcl-2 G101V mutant, TR-FRET; read-out: Biochemical assay (IC50, nM) Bcl-2 G101V
Procedure, shortened: (§1)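 Percent inhibition of the Bcl-2-G101V–ligand interaction was computed from the 490 nm to 520 nm emission ratio after 337 nm excitation, over increasing compound concentrations; a four-parameter logistic fit gave IC50.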

[3] = system: recombinant human Bcl-2-G101V protein; assay: Bcl-2-G101V TR-FRET Assay; format: binding; settings: ratio of biochemical IC50 Bcl-2 G101V / Bcl-2 WT
Procedure, shortened: as §1

[4] = system: RS4;11 (BCL-2 dependent acute lymphoblastic leukemia cell line); assay: RS4;11 Cell Proliferation Assay; format: cell-based; settings: Homo sapiens, RS4-11, RS4;11 cells, read-out: Cellular proliferation assay (IC50, nM) RS4
Procedure, shortened: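 RS4;11 cells, 50,000 per well in RPMI-1640 with 10% FBS, treated 48 h at 37 °C with a 10-point dilution series topping at 1 μM. Viability read by CellTiter-Glo ATP luminescence; mean IC50 reported.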

[5] = system: BCL-2 G101V knock-in cell line H96 (derive from RS4;11); assay: Bcl 2-G101V Knock-In RS4;11 Cell Proliferation Assay; format: cell-based; settings: Homo sapiens, RS4;11 Bcl-2 G101V knock-in clone H96, 48 hrs, CellTiter-GLO, read-out: Cellular proliferation assay (IC50, nM) RS4
Procedure, shortened: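 H96, a CRISPR-generated RS4;11 clone carrying BCL2-G101V knock-in (WES/RNA-seq validated), seeded 50,000 per well and exposed 48 h at 37 °C to 10-point dilutions topping at 1 or 10 μM. Viability by CellTiter-Glo luminescence; mean IC50.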

[6] = target: recombinant human Bcl-2 D103Y protein (Homo sapiens (Human), UniProt P10415, D103Y); assay: Bcl-2-D103Y Biochemical Assay (TR-FRET); format: binding; settings: for IC50: TR-FRET, FITC labeled Bak peptide; for Ratio of Bcl-2 D103Y/Bcl-2 WT: ratio of IC50
Procedure, shortened: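 Recombinant human Bcl-2 D103Y binding to its ligand measured by TR-FRET (ex 337 nm, em 490/520 nm) with increasing compound concentrations. Percent inhibition from the 490/520 nm ratio; IC50 from four-parameter logistic fit.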

[7] = Bcl-2 wild type, TR-FRET, read-out: Biochemical assay (IC50, nM) Bcl-2 WT
[8] = wild type Bcl-2, unit inferred, read-out: Bcl-2 WT

SMILES | IC50 [1, 7] | IC50 [1, 8] | IC50 [2] | Ratio of Bcl-2 G101V/WT [3] | IC50 [4] | IC50 [5] | IC50 [6] | Ratio of Bcl-2 D103Y/Bcl-2 WT [6]
COc1cc(CN2CCN(C3CC4(C3)CN(c3ccc(C(=O)NS(=O)(=O)c5ccc(NC[C@H]6CC[C@](C)(O)CC6)c([N+](=O)[O-])c5)c(Oc5cnc6[nH]ccc6c5)c3)C4)[C@H](c3ccccc3C(C)C)C2)cc2c1OCC2(C)C [Example 296, 2-((1H-pyrrolo[2,3-b]pyridin-5-yl)oxy)-N-((4-((((1r,4r)-4-hydroxy-4-methylcyclohexyl)methyl)amino)-3-nitrophenyl)sulfonyl)-4-(6-((R)-2-(2-isopropylphenyl)-4-((7-methoxy-3,3-dimethyl-2,3-dihydrobenzofuran-5-yl)methyl)piperazin-1-yl)-2-azaspiro[3.3]heptan-2-yl)benzamide] | 0.13 nM | 0.13 nM | 0.28 nM | 2.1 | 0.24 nM | 0.55 nM | 0.14 nM | 1.1
COc1cc(CN2CCN(C3CC4(CCN(c5ccc(C(=O)NS(=O)(=O)c6ccc(NC[C@H]7CC[C@](C)(O)CC7)c([N+](=O)[O-])c6)c(Oc6cnc7[nH]cc(F)c7c6)c5)CC4)C3)[C@H](c3ccccc3C(C)C)C2)cc2c1OCCC2 [Example 299, 2-((3-fluoro-1H-pyrrolo[2,3-b]pyridin-5-yl)oxy)-N-((4-((((1r,4r)-4-hydroxy-4-methylcyclohexyl)methyl)amino)-3-nitrophenyl)sulfonyl)-4-(2-((R)-2-(2-isopropylphenyl)-4-((8-methoxychroman-6-yl)methyl)piperazin-1-yl)-7-azaspiro[3.5]nonan-7-yl)benzamide] | 0.13 nM | 0.13 nM | 0.25 nM | 1.9 | 0.27 nM | 0.47 nM | 0.13 nM | 1.0
COc1cc(CN2CCN(C3CC4(CCN(c5ccc(C(=O)NS(=O)(=O)c6ccc(NC[C@H]7CC[C@](C)(O)CC7)c([N+](=O)[O-])c6)c(Oc6cnc7[nH]ccc7c6)c5)CC4)C3)[C@H](c3ccccc3C(C)C)C2)cc2c1OCCC2 [Example 302, 2-((1H-pyrrolo[2,3-b]pyridin-5-yl)oxy)-N-((4-((((1r,4r)-4-hydroxy-4-methylcyclohexyl)methyl)amino)-3-nitrophenyl)sulfonyl)-4-(2-((R)-2-(2-isopropylphenyl)-4-((8-methoxychroman-6-yl)methyl)piperazin-1-yl)-7-azaspiro[3.5]nonan-7-yl)benzamide] | 0.071 nM | 0.071 nM | 0.2 nM | 2.8 | 0.31 nM | 0.79 nM | 0.069 nM | 1.0
COc1cc(CN2CCN(C3CC4(CCN(c5ccc(C(=O)NS(=O)(=O)c6ccc(NC[C@H]7CC[C@](C)(O)CC7)c([N+](=O)[O-])c6)c(Oc6cnc7[nH]cc(F)c7c6)c5)CC4)C3)[C@H](c3ccccc3C(C)C)C2)cc2c1OCC2 [Example 303] | 0.11 nM | 0.11 nM | 0.26 nM | 2.3 | 0.3 nM | 0.52 nM | 0.16 nM | 1.4
CC(C)c1ccccc1[C@@H]1CN(Cc2ccc3c(c2)OCC3)CCN1C1CC2(CCN(c3ccc(C(=O)NS(=O)(=O)c4ccc(NC[C@H]5CC[C@](C)(O)CC5)c([N+](=O)[O-])c4)c(Oc4cnc5[nH]ccc5c4)c3)CC2)C1 [Example 304, 2-((1H-pyrrolo[2,3-b]pyridin-5-yl)oxy)-4-(2-((R)-4-((2,3-dihydrobenzofuran-6-yl)methyl)-2-(2-isopropylphenyl)piperazin-1-yl)-7-azaspiro[3.5]nonan-7-yl)-N-((4-((((1r,4r)-4-hydroxy-4-methylcyclohexyl)methyl)amino)-3-nitrophenyl)sulfonyl)benzamide] | 0.13 nM | 0.13 nM | 0.41 nM | 3.2 | 0.3 nM | 2.3 nM | 0.22 nM | 1.8
COc1cc(CN2CCN(C3CC4(C3)CN(c3ccc(C(=O)NS(=O)(=O)c5ccc(NC[C@H]6CC[C@](C)(O)CC6)c([N+](=O)[O-])c5)c(Oc5cnc6[nH]cc(F)c6c5)c3)C4)[C@H](c3ccccc3C(C)C)C2)cc2ccoc12 [Example 306, 2-((3-fluoro-1H-pyrrolo[2,3-b]pyridin-5-yl)oxy)-N-((4-((((1r,4r)-4-hydroxy-4-methylcyclohexyl)methyl)amino)-3-nitrophenyl)sulfonyl)-4-(6-((R)-2-(2-isopropylphenyl)-4-((7-methoxybenzofuran-5-yl)methyl)piperazin-1-yl)-2-azaspiro[3.3]heptan-2-yl)benzamide] | 0.31 nM | 0.31 nM | 0.97 nM | 3.1 | 0.12 nM | 0.15 nM | 0.31 nM | 1.0
COc1cc(CN2CCN(C3CC4(C3)CN(c3ccc(C(=O)NS(=O)(=O)c5ccc(NC[C@H]6CC[C@](C)(O)CC6)c([N+](=O)[O-])c5)c(Oc5cnc6[nH]ccc6c5)c3)C4)[C@H](c3ccccc3C(C)C)C2)cc2ccoc12 [Example 307, 2-((1H-pyrrolo[2,3-b]pyridin-5-yl)oxy)-N-((4-((((1r,4r)-4-hydroxy-4-methylcyclohexyl)methyl)amino)-3-nitrophenyl)sulfonyl)-4-(6-((R)-2-(2-isopropylphenyl)-4-((7-methoxybenzofuran-5-yl)methyl)piperazin-1-yl)-2-azaspiro[3.3]heptan-2-yl)benzamide] | 0.17 nM | 0.17 nM | 0.43 nM | 2.5 | 0.11 nM | 0.17 nM | 0.18 nM | 1.1
CC(C)c1ccccc1[C@@H]1CN(Cc2ccnc3c2OCC(C)(C)O3)CCN1C1CC2(C1)CN(c1ccc(C(=O)NS(=O)(=O)c3ccc(NC[C@H]4CC[C@](C)(O)CC4)c([N+](=O)[O-])c3)c(Oc3cnc4[nH]cc(F)c4c3)c1)C2 [Example 317] | 0.033 nM | 0.033 nM | 0.12 nM | 3.6 | 0.19 nM | 0.43 nM | 0.057 nM | 1.7
COc1cc(CN2CCN(C3CC4(C3)CN(c3ccc(C(=O)NS(=O)(=O)c5ccc(NC[C@H]6CC[C@](C)(O)CC6)c([N+](=O)[O-])c5)c(Oc5cnc6[nH]ccc6c5)c3)C4)[C@H](c3ccccc3C(C)C)C2)cc2c1OCCC2 [Example 318, 2-((1H-pyrrolo[2,3-b]pyridin-5-yl)oxy)-N-((4-((((1r,4r)-4-hydroxy-4-methylcyclohexyl)methyl)amino)-3-nitrophenyl)sulfonyl)-4-(6-((R)-2-(2-isopropylphenyl)-4-((8-methoxychroman-6-yl)methyl)piperazin-1-yl)-2-azaspiro[3.3]heptan-2-yl)benzamide] | 0.056 nM | 0.056 nM | 0.16 nM | 2.9 | 0.2 nM | 0.31 nM | 0.052 nM | 0.9
COc1cc(CN2CCN(C3CC4(C3)CN(c3ccc(C(=O)NS(=O)(=O)c5ccc(NCC6CCOCC6)c([N+](=O)[O-])c5)c(Oc5cnc6[nH]ccc6c5)c3)C4)[C@H](c3ccccc3C(C)C)C2)ccc1C1CC1 [Example 319] | 0.25 nM | 0.25 nM | 0.85 nM | 3.3 | 0.24 nM | 0.84 nM | 0.42 nM | 1.7
COc1cc(CN2CCN(C3CC4(C3)CN(c3ccc(C(=O)NS(=O)(=O)c5ccc(NCC6CCOCC6)c([N+](=O)[O-])c5)c(Oc5cnc6[nH]cc(F)c6c5)c3)C4)[C@H](c3ccccc3C(C)C)C2)ccc1C1CC1 [Example 320, (R)-4-(6-(4-(4-cyclopropyl-3-methoxybenzyl)-2-(2-isopropylphenyl)piperazin-1-yl)-2-azaspiro[3.3]heptan-2-yl)-2-((3-fluoro-1H-pyrrolo[2,3-b]pyridin-5-yl)oxy)-N-((3-nitro-4-(((tetrahydro-2H-pyran-4-yl)methyl)amino)phenyl)sulfonyl) benzamide] | 0.55 nM | 0.55 nM | 1.7 nM | 3.1 | 0.19 nM | 0.47 nM | 0.52 nM | 0.93
